Measured values reported in PubChem BioAssay AID687022 (Broad Institute, 2013).
Active and inactive are the calls of the source.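 How the source made its calls: active means Fitted curve of melting temperature shift crosses the 1.0 threshold at or below the sample's highest valid tested concentration; inconclusive means Flat fit with activity 30 to 70, or invalid fit; inactive means Opposite direction, flat within 30, or no crossing.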

Target: Fibroblast growth factor 22 (Homo sapiens) (UniProt Q9HCT0)
Assay: binders of human FGF22 protein, dose response, FGF22 synaptogenesis inhibitor project, biophysical, thermal shift, cherry-pick (AID 687022)
Conditions: recombinant FGF22 thermal shift, SYPRO orange melting

Chain of Fibroblast growth factor 22 (Homo sapiens) (Q9HCT0 whole entry, looked up): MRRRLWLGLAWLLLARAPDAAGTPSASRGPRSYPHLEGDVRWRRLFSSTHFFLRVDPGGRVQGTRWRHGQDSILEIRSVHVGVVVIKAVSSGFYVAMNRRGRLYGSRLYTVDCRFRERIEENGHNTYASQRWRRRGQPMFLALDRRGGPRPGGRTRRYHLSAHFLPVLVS

Row | Structure (SMILES) | AbsAC1 (concentration giving Tm-shift threshold 1.0)
1 | O=C(NCCc1c[nH]c2ccccc12)c1ccc(Cl)cc1 | 2.49 µM
2 | CCCCNC(=O)c1onc(CSc2ccc(F)c(F)c2)c1C(=O)NCCCC | 0.929 µM
3 | C[C@H]1CN([C@@H](C)CO)S(=O)(=O)c2ccc(-c3ccncc3)cc2O[C@H]1CN(C)C(=O)Nc1ccc(C(F)(F)F)cc1 | 11.8 µM
4 | Cc1ccc(S(=O)(=O)NCCC(=O)Nc2ccc(C)c(Cl)c2)cc1C | 4.71 µM
5 | COc1cc(NC(=O)C2CCC(CNS(=O)(=O)c3csc(C(N)=O)c3)CC2)cc(OC)c1 (stereo unspecified) | 5.8 µM
6 | COc1cccc(NC(=O)N(C)C[C@H]2Oc3cc(-c4ccccc4F)ccc3S(=O)(=O)N([C@H](C)CO)C[C@@H]2C)c1 | 8.76 µM
7 | O=C(COc1ccc([N+](=O)[O-])cc1)Nc1cccc(C(=O)Nc2ccccc2C(=O)O)c1 | 3.74 µM
8 | S=C(Nc1ccc(Cl)cc1)Nc1ccc2cn[nH]c2c1 | 3.25 µM
9 | COc1cc(NC(=O)c2cnc(N)s2)cc(C(=O)Nc2cccc(C(F)(F)F)c2)c1 | 2.42 µM
10 | C/C(=N\NC(=O)c1cccc(S(=O)(=O)N2CCOCC2)c1)c1ccc(OC(F)F)cc1 | 21.9 µM
11 | N#Cc1cccc(NC(=O)c2ccc(S(=O)(=O)N3CCOCC3)cc2)c1 | 4 µM
12 | COc1ccc(-c2nc(-c3ccc(O)cc3O)cs2)cc1OC | 5.56 µM
13 | C[C@@H]1CN([C@@H](C)CO)C(=O)c2cc(NC(=O)Nc3ccc(C(F)(F)F)cc3)ccc2O[C@@H]1CN(C)Cc1ccc(C(=O)O)cc1 | 18.1 µM
14 | CCN1C(=O)C(CC(=O)Nc2ccc(F)cc2)N(Cc2ccc3c(c2)OCO3)C1=S (stereo unspecified) | 2.83 µM
15 | COC12CC(=O)C(C(C)=O)=C(O)C1(C)c1c(O)c(C)c(O)c(C(C)=O)c1O2 (stereo unspecified) | 6.77 µM
16 | COc1cc(NC(=O)c2cnc(N)o2)cc(C(=O)Nc2cccc(C(F)(F)F)c2)c1 | 3.44 µM
17 | C[C@H](CO)N1C[C@H](C)[C@H](CN(C)C(=O)Nc2ccc(C(F)(F)F)cc2)Oc2cc(-c3ccncc3)ccc2S1(=O)=O | 10.3 µM
18 | C[C@@H]1CN([C@H](C)CO)C(=O)c2cc(NC(=O)Nc3ccc(C(F)(F)F)cc3)ccc2O[C@@H]1CN(C)Cc1ccc(C(=O)O)cc1 | 11.5 µM
19 | Cc1ccc(-c2n[nH]c(=S)n2/N=C/c2c(C)[nH]n(-c3ccccc3)c2=O)cc1 | 4.65 µM
20 | COc1cccc(NC(=O)N(C)C[C@@H]2Oc3cc(-c4ccccc4F)ccc3S(=O)(=O)N([C@@H](C)CO)C[C@@H]2C)c1 | 2.97 µM
21 | COc1ccc(-c2ccc([C@H]3[C@@H](CO)N4CCCCN(C(=O)c5ccc6c(c5)OCO6)C[C@H]34)cc2)cc1 | 15.2 µM

Row | Structure (SMILES) | AbsAC1 (concentration giving Tm-shift threshold 1.0)
22 | CC(=O)C1=C(O)C(=O)N(c2ccc(S(=O)(=O)Nc3nccs3)cc2)C1c1ccc(F)cc1 (stereo unspecified) | > 19.5 µM (inactive)
23 | Cc1nc2ccc(NC(=O)c3ccc(C)c(S(=O)(=O)N4CCOCC4)c3)cc2s1 | 25.9 µM
24 | O=C(Nc1cc(Cl)cc(Cl)c1)N[C@H]1CC[C@H](CCNS(=O)(=O)c2cccc(F)c2)O[C@@H]1CO | 11 µM
25 | S=C(NCCN1CCOCC1)Nc1ccc(-c2nc3ccccc3[nH]2)cc1 | 7.5 µM
26 | COc1ccc(CN2C(=O)N(c3ccc(OC)cc3)C(=O)C2CC(=O)Nc2ccccc2)cc1 (stereo unspecified) | 6.06 µM
27 | CCCOc1ccc(NC(=O)CC2C(=O)N(C)C(=S)N2Cc2ccc3c(c2)OCO3)cc1 (stereo unspecified) | 3.25 µM
28 | O=C(Nc1ccc(Cl)cc1)N[C@H]1CC[C@H](CCNC(=O)c2cc(Cl)cc(Cl)c2)O[C@@H]1CO | 34.9 µM
29 | O=[N+]([O-])c1ccc(Nc2cccc(F)c2)nc1 | 3.78 µM
30 | Cn1c(=O)c2c(-c3ccccc3)n(-c3cc(Cl)c([N+](=O)[O-])cc3O)cc2n(C)c1=O | 2.38 µM
31 | Cc1ccc(NC(=O)CN2C(=O)NC(Cc3c[nH]c4ccccc34)C2=O)cc1 (stereo unspecified) | 16.2 µM
32 | CCNC(=O)C[C@@H]1CC[C@H]2[C@H](COc3ccc(NC(=O)Nc4ccc(Cl)cc4)cc3C(=O)N2C)O1 | 6.25 µM
33 | Cc1ccc(CCNc2ncnc(Cl)c2N)cc1 | 6.55 µM
34 | COc1cccc(NC(=O)CN(C)C(=O)c2ccc(NC3CC3)c([N+](=O)[O-])c2)c1 | 5.08 µM
35 | CCC(=O)Nc1nc(C)c(-c2csc(Nc3ccccn3)n2)s1 | 4.91 µM
36 | Cc1cccc(S(=O)(=O)N2C[C@@H](O)COC[C@H]3O[C@H](CC(=O)Nc4ccc(-c5ccccc5)cc4)CC[C@@H]32)c1 | 16.6 µM
37 | CNC(=S)N(Cc1ccc(OC)cc1)C1CC(=O)N(c2ccc(C(=O)OC)cc2)C1=O (stereo unspecified) | 3.43 µM
38 | COc1ccc(-c2ccc([C@H]3[C@H]4CN(C(=O)c5ccc6c(c5)OCO6)CCCCN4[C@H]3CO)cc2)cc1 | 15.9 µM
39 | CCN(CC)S(=O)(=O)c1ccc(N/N=C(\C)c2ccc(OC)cc2O)nc1 | 14 µM
40 | O=C1C(Cl)=C(NS(=O)(=O)c2ccc([N+](=O)[O-])cc2)C(=O)c2ccccc21 | 7.4 µM
41 | O=C(CCc1c[nH]c2ccccc12)Nc1ccc(Nc2cccnc2)cc1 | 4.36 µM
42 | O=C(Nc1nnc(C(F)(F)F)s1)c1ccc(Br)s1 | 15.6 µM

Row | Structure (SMILES) | AbsAC1 (concentration giving Tm-shift threshold 1.0)
43 | CCOc1cccc(C(=O)Nc2ccc3[nH]ncc3c2)c1 | 3.89 µM
44 | COC(=O)C[C@H]1CC[C@@H]2[C@@H](COc3ccc(NC(=O)Nc4ccc(C#N)cc4)cc3C(=O)N2C)O1 | 5.43 µM
45 | CC(C)c1c(C(=O)N/N=C/c2c[nH]c3ccccc23)nnn1-c1nonc1N | 1.67 µM
46 | O=C(Nc1cc(Cl)cc(Cl)c1)N[C@@H]1CC[C@@H](CCNS(=O)(=O)c2cccc(F)c2)O[C@@H]1CO | 5.64 µM
47 | O=C(Nc1ccc2c(c1)OCO2)c1ccc(NC2CC2)c([N+](=O)[O-])c1 | 17.8 µM
48 | CC1CCN(Cc2c(C(=O)N/N=C/c3ccc(OC(C)C)cc3)nnn2-c2nonc2N)CC1 | 14 µM
49 | O=C1Nc2cc(Cl)c(Cl)cc2N(O)N1c1ccc(Cl)cc1 | 4.98 µM
50 | CCOc1ccc(NC(=O)CC2C(=O)N(c3ccc(OC)cc3)C(=S)N2Cc2ccccn2)cc1 (stereo unspecified) | 3.11 µM
51 | C[C@H]1CN([C@@H](C)CO)S(=O)(=O)c2ccc(C3=CCCC3)cc2O[C@H]1CN(C)C(=O)Nc1ccc2c(c1)OCO2 | 22.9 µM
52 | O=C(NC1CC1)c1cccc(NC(=O)c2cnn(-c3ccccc3)n2)c1 | 11.7 µM
53 | CC(C)n1c(=O)c2ccccc2n1Cc1cn(-c2ccc(Cl)cc2)nn1 | 3.24 µM
54 | O=C(O)c1cccc(NS(=O)(=O)c2ccc(-c3ccc(S(=O)(=O)Nc4cccc(C(=O)O)c4)cc3)cc2)c1 | 1.2 µM
55 | COc1c(O)ccc(/C=C(\C#N)c2nc3ccccc3[nH]2)c1[N+](=O)[O-] | 7.61 µM
56 | Cc1ccn(-c2ccc(NC(=O)c3cccs3)cc2)n1 | 3.72 µM
57 | Cc1ccc(C(=O)Nc2nc(=O)n(C(=O)C3CC3)s2)cc1 | 11.1 µM
58 | COc1ccccc1NS(=O)(=O)c1cc(C(=O)Nc2ccc(S(=O)(=O)Nc3onc(C)c3C)cc2)ccc1C | 4.31 µM
59 | CS(=O)(=O)c1ccc2nc(NC(=O)c3ccc(Cl)nc3)sc2c1 | 22.9 µM
60 | O=C(Nc1cccnc1)c1ccc(NS(=O)(=O)c2cccc([N+](=O)[O-])c2)cc1 | 8.48 µM
61 | CCOc1cc(C=NNC(=O)c2cccc(S(=O)(=O)N3CCCC3)c2)ccc1O | 6.84 µM
62 | NC(=O)Nc1ccc(C(=O)OCC(=O)Nc2sccc2C(N)=O)cc1 | 23.8 µM
63 | Cc1ccc(S(=O)(=O)N(C)C[C@@H]2Oc3cc(Br)ccc3S(=O)(=O)N([C@@H](C)CO)C[C@H]2C)cc1 | 29.2 µM

Row | Structure (SMILES) | AbsAC1 (concentration giving Tm-shift threshold 1.0)
64 | NS(=O)(=O)c1cc(C(=O)NC2CCSc3ccccc32)ccc1Cl (stereo unspecified) | 9.54 µM
65 | O=Cc1cc(OCc2ccccc2)ccc1[B-](F)(F)F | 4.64 µM
66 | COc1ccc2nc(NC(=O)CCc3cc(OC)c(OC)c(OC)c3)sc2c1 | 19.3 µM
67 | COc1ccc(C(=O)N2CCCCC2)cc1S(=O)(=O)Nc1cccc(C(=O)O)c1 | 9.12 µM
68 | CCN(CC)c1ccc2cc(S(=O)(=O)c3ccc(Cl)cc3)c(=O)oc2c1 | 5.6 µM
69 | O=C(N/N=C/c1ccc(Cl)cc1)c1ccc2nc[nH]c2c1 | 2.95 µM
70 | O=C(O)c1ccc(NC(=O)c2cccc(S(=O)(=O)Nc3ccc(C(=O)O)cc3)c2)cc1 | > 5 µM (inactive)
71 | O=C(Nc1ccc(O)cc1)c1cccc(Oc2ccc([N+](=O)[O-])cc2)c1 | 4.32 µM
72 | C=C1[C@@H](O)[C@H](Cc2ccccc2)N(Cc2ccccc2Br)S1(=O)=O | 15.5 µM
73 | COc1ccc2c(CC(=O)NNC(=O)c3ccc(O)cc3)coc2c1 | 3.22 µM
74 | CC(=O)Nc1ccc(S(=O)(=O)N(CCc2ccccc2)CC(=O)N/N=C/c2ccc(C(=O)O)cc2)cc1 | 7.42 µM
75 | COc1ccc(Cc2nnc(NS(=O)(=O)c3ccccc3)s2)cc1 | > 19.5 µM (inactive)
76 | Cc1noc(NC(=O)c2cccc(Cl)c2Cl)c1C#N | 32.7 µM
77 | O=C(Nc1nc(-c2ccccn2)cs1)c1cc2ccccc2o1 | 16.1 µM
78 | O=C(NN=Cc1ccc(O)cc1O)c1ccccc1NS(=O)(=O)c1cccs1 | 32.7 µM
79 | CCc1ccc(N2CC(C(=O)OCC(=O)Nc3ccc(C#N)cc3)CC2=O)cc1 (stereo unspecified) | 20.8 µM
80 | NC(=O)c1ccsc1NC(=O)COC(=O)Cc1c[nH]c2ccccc12 | 13.9 µM
81 | CCOc1ccc(-c2cc(C(=O)N/N=C/c3cccnc3)c3ccccc3n2)cc1 | 13 µM
